Test results published in US5530126A, “Process for the preparation of substituted 6-(pyrazol-3yl)-1,4-benzoxazin-3-ones” (Monsanto Company, priority 1994, dated 1996).

Legend:
Assay type in all cases: in vivo
Morningglory [1] = assay: Pre-emergence herbicide test; details: Ipomoea, read-out: % plant inhibition (Mogl); for inhibition at 11210 g/ha: 11.21 kg/ha
Method in brief: (§1)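 Pre-emergence soil application: compound in acetone or water carrier sprayed onto seeded topsoil surface, overlaid with untreated soil. Pans kept on greenhouse bench, watered from below. Read-out % inhibition, ~11 days post-treatment.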

Seedling johnsongrass [2] = assay: Pre-emergence herbicide test; details: Sorghum halepense, read-out: % plant inhibition (Sejg); for inhibition at 11210 g/ha: 11.21 kg/ha
Method in brief: as §1

Cocklebur [3] = assay: Pre-emergence herbicide test; details: Xanthium strumarium, read-out: % plant inhibition (Cobu); for inhibition at 11210 g/ha: 11.21 kg/ha
Method in brief: as §1

Barnyardgrass [4] = assay: Pre-emergence herbicide test; details: Echinochloa crus-galli, read-out: % plant inhibition (Bygr); for inhibition at 11210 g/ha: 11.21 kg/ha
Method in brief: as §1

Yellow nutsedge [5] = assay: Pre-emergence herbicide test; details: Cyperus, read-out: % plant inhibition (Yens); for inhibition at 11210 g/ha: 11.21 kg/ha
Method in brief: as §1

Annual bluegrass [6] = assay: Pre-emergence herbicide test; details: read-out: % plant inhibition (Anbg); for inhibition at 11210 g/ha: 11.21 kg/ha
Method in brief: as §1

Indian Mustard [7] = assay: Pre-emergence herbicide test; details: Brassica juncea, read-out: % plant inhibition (Inmu); for inhibition at 11210 g/ha: 11.21 kg/ha
Method in brief: as §1

Downy Brome [8] = assay: Pre-emergence herbicide test; details: Bromus tectorum, read-out: % plant inhibition (Dobr); for inhibition at 11210 g/ha: 11.21 kg/ha
Method in brief: as §1

Wild buckwheat [9] = assay: Pre-emergence herbicide test; details: Fallopia convolvulus, read-out: % plant inhibition (Wibw); for inhibition at 11210 g/ha: 11.21 kg/ha
Method in brief: as §1

Velvetleaf [10] = assay: Pre-emergence herbicide test; details: Abutilon theophrasti, read-out: % plant inhibition (Vele); for inhibition at 11210 g/ha: 11.21 kg/ha
Method in brief: as §1

Morningglory [11] = assay: Post-emergence herbicide test; details: Ipomoea, read-out: % plant inhibition (Mogl); for inhibition at 11210 g/ha: 11.21 kg/ha
Method in brief: (§2)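 Emerged annual and perennial plants (2–3 weeks) are sprayed with test compound in a carrier with ~0.4% emulsifier, 1870 L/Ha total volume, atomizer pressure 10 psig. Effects are expressed as % inhibition versus control at approximately 10–14 days and occasionally 24–28 days.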

Seedling johnsongrass [12] = assay: Post-emergence herbicide test; details: Sorghum halepense, read-out: % plant inhibition (Sejg); for inhibition at 11210 g/ha: 11.21 kg/ha
Method in brief: as §2

Cocklebur [13] = assay: Post-emergence herbicide test; details: Xanthium strumarium, read-out: % plant inhibition (Cobu); for inhibition at 11210 g/ha: 11.21 kg/ha
Method in brief: as §2

Barnyardgrass [14] = assay: Post-emergence herbicide test; details: Echinochloa crus-galli, read-out: % plant inhibition (Bygr); for inhibition at 11210 g/ha: 11.21 kg/ha
Method in brief: as §2

Yellow nutsedge [15] = assay: Post-emergence herbicide test; details: Cyperus, read-out: % plant inhibition (Yens); for inhibition at 11210 g/ha: 11.21 kg/ha
Method in brief: as §2

Annual bluegrass [16] = assay: Post-emergence herbicide test; details: read-out: % plant inhibition (Anbg); for inhibition at 11210 g/ha: 11.21 kg/ha
Method in brief: as §2

Indian Mustard [17] = assay: Post-emergence herbicide test; details: Brassica juncea, read-out: % plant inhibition (Inmu); for inhibition at 11210 g/ha: 11.21 kg/ha
Method in brief: as §2

Downy Brome [18] = assay: Post-emergence herbicide test; details: Bromus tectorum, read-out: % plant inhibition (Dobr); for inhibition at 11210 g/ha: 11.21 kg/ha
Method in brief: as §2

Wild buckwheat [19] = assay: Post-emergence herbicide test; details: Fallopia convolvulus, read-out: % plant inhibition (Wibw); for inhibition at 11210 g/ha: 11.21 kg/ha
Method in brief: as §2

Velvetleaf [20] = assay: Post-emergence herbicide test; details: Abutilon theophrasti, read-out: % plant inhibition (Vele); for inhibition at 11210 g/ha: 11.21 kg/ha
Method in brief: as §2

| Structure (SMILES) | inhibition at 11210 g/ha (Morningglory [1]) | inhibition at 11210 g/ha (Seedling johnsongrass [2]) | inhibition at 11210 g/ha (Cocklebur [3]) | inhibition at 11210 g/ha (Barnyardgrass [4]) | inhibition at 11210 g/ha (Yellow nutsedge [5]) | inhibition at 11210 g/ha (Annual bluegrass [6]) | inhibition at 11210 g/ha (Indian Mustard [7]) | inhibition at 11210 g/ha (Downy Brome [8]) | inhibition at 11210 g/ha (Wild buckwheat [9]) | inhibition at 11210 g/ha (Velvetleaf [10]) | inhibition at 11210 g/ha (Morningglory [11]) | inhibition at 11210 g/ha (Seedling johnsongrass [12]) | inhibition at 11210 g/ha (Cocklebur [13]) | inhibition at 11210 g/ha (Barnyardgrass [14]) | inhibition at 11210 g/ha (Yellow nutsedge [15]) | inhibition at 11210 g/ha (Annual bluegrass [16]) | inhibition at 11210 g/ha (Indian Mustard [17]) | inhibition at 11210 g/ha (Downy Brome [18]) | inhibition at 11210 g/ha (Wild buckwheat [19]) | inhibition at 11210 g/ha (Velvetleaf [20]) | other results |
| --- | --- | --- | --- | --- | --- | --- | --- | --- | --- | --- | --- | --- | --- | --- | --- | --- | --- | --- | --- | --- | --- |
| Cn1nc(-c2cc(O)c(Cl)cc2F)c(Cl)c1C(F)(F)Cl [Compound 329] | – | – | – | – | – | – | – | – | – | – | – | – | – | – | – | – | – | – | – | – | inhibition at 1120 g/ha (Morningglory [1]; 1.12 kg/ha): 70%; inhibition at 1120 g/ha (Seedling johnsongrass [2]; 1.12 kg/ha): 0%; inhibition at 1120 g/ha (Cocklebur [3]; 1.12 kg/ha): 0%; inhibition at 1120 g/ha (Barnyardgrass [4]; 1.12 kg/ha): 0%; inhibition at 1120 g/ha (Yellow nutsedge [5]; 1.12 kg/ha): 0%; inhibition at 1120 g/ha (Annual bluegrass [6]; 1.12 kg/ha): 0%; inhibition at 1120 g/ha (Indian Mustard [7]; 1.12 kg/ha): 90%; inhibition at 1120 g/ha (Downy Brome [8]; 1.12 kg/ha): 0%; inhibition at 1120 g/ha (Wild buckwheat [9]; 1.12 kg/ha): 100%; inhibition at 1120 g/ha (Velvetleaf [10]; 1.12 kg/ha): 100%; inhibition at 1120 g/ha (Morningglory [11]; 1.12 kg/ha): 100%; inhibition at 1120 g/ha (Seedling johnsongrass [12]; 1.12 kg/ha): 90%; inhibition at 1120 g/ha (Cocklebur [13]; 1.12 kg/ha): 90%; inhibition at 1120 g/ha (Barnyardgrass [14]; 1.12 kg/ha): 90%; inhibition at 1120 g/ha (Yellow nutsedge [15]; 1.12 kg/ha): 0%; inhibition at 1120 g/ha (Annual bluegrass [16]; 1.12 kg/ha): 90%; inhibition at 1120 g/ha (Indian Mustard [17]; 1.12 kg/ha): 100%; inhibition at 1120 g/ha (Downy Brome [18]; 1.12 kg/ha): 90%; inhibition at 1120 g/ha (Wild buckwheat [19]; 1.12 kg/ha): 100%; inhibition at 1120 g/ha (Velvetleaf [20]; 1.12 kg/ha): 100% |
| CC(=O)OCc1cc(-c2nn(C)c(C(F)(F)F)c2Cl)c(F)cc1Cl [Compound 121] | 100% | 80% | 60% | 100% | 70% | 100% | 100% | 70% | 100% | 100% | 100% | 90% | 90% | 100% | 20% | 40% | 90% | 90% | 100% | 100% | – |
| Cc1cc(-c2nn(C)c(C(F)(F)F)c2Cl)c(F)cc1Cl [Compound 124] | 100% | 100% | 100% | 100% | 20% | 100% | 100% | 100% | 100% | 100% | 100% | 100% | 70% | 90% | 20% | 70% | 90% | 50% | 100% | 100% | – |
| CCS(=O)(=O)N(c1cc(-c2nn(C)c(C(F)(F)F)c2Cl)c(Cl)cc1Cl)S(=O)(=O)CC [Compound 90] | 10% | 50% | 0% | 10% | 0% | 10% | 10% | 10% | 30% | 20% | 60% | 0% | 30% | 0% | 0% | 10% | 50% | 10% | 50% | 100% | – |
| COc1cc(-c2c(Cl)c(C(F)(F)F)nn2C)c(F)cc1[N+](=O)[O-] [Compound 72] | 40% | 60% | 20% | 60% | 0% | 20% | 90% | 20% | 90% | 90% | 30% | 10% | 60% | 50% | 10% | 10% | 30% | 20% | 90% | 90% | – |
